What was measured:
Format in all cases: in vivo
[1] = test system: Abutilon theophrasti (ABUTH); test: Pre-emergence herbicidal activity (B1); details: Test 1b, 1000 g/ha, evaluated after 13 days, 5=total damage to plant, 0=no damage to plant
Procedure: (§1) B1 Pre-Emergence Herbicidal Activity Seeds of a variety of test species were sown in standard soil in pots: Triticum aestivium (TRZAW), Avena fatua (AVEFA), Alopecurus myosuroides (ALOMY), Echinochloa crus-galli (ECHCG), Lolium perenne (LOLPE), Zea Mays (ZEAMX), Abutilon theophrasti (ABUTH), Amaranthus retroflexus (AMARE) and Setaria faberi (SETFA). After cultivation for one day (pre-emergence) under controlled conditions in a glasshouse (at 24/16° C., day/night; 14 hours light; 65% humidity), the plants were sprayed with an aqueous spray solution derived from the formulation of the technical active ingredient in acetone/water (50:50) solution containing 0.5% Tween 20 (polyoxyethelyene sorbitan monolaurate, CAS RN 9005-64-5). The test plants were then grown in a glasshouse under controlled conditions (at 24/16° C., day/night; 14 hours light; 65% humidity) and watered twice daily. After 13 days, the test was evaluated (5=total damage to plant; 0=no damage to plant). Tables B1a and B1b Control of Weed Species by Compound of Formula (I) after Pre-Emergence Application

[2] = test system: Amaranthus retroflexus (AMARE); test: Pre-emergence herbicidal activity (B1); details: Test 1b, 1000 g/ha, evaluated after 13 days, 5=total damage to plant, 0=no damage to plant
Procedure: as §1

[3] = test system: Echinochloa crus-galli (ECHCG); test: Pre-emergence herbicidal activity (B1); details: 1000 g/ha, evaluated after 13 days, 5=total damage to plant, 0=no damage to plant
Procedure: as §1

Lolium perenne (LOLPE) [4] = test: Pre-emergence herbicidal activity (B1); details: 1000 g/ha, evaluated after 13 days, 5=total damage to plant, 0=no damage to plant
Procedure: as §1

Setaria faberi (SETFA) [5] = test: Pre-emergence herbicidal activity (B1); details: 1000 g/ha, evaluated after 13 days, 5=total damage to plant, 0=no damage to plant
Procedure: as §1

Zea Mays (ZEAMX) [6] = test: Pre-emergence herbicidal activity (B1); details: Test 1b, 1000 g/ha, evaluated after 13 days, 5=total damage to plant, 0=no damage to plant
Procedure: as §1

[7] = test system: Abutilon theophrasti (ABUTH); test: Post-emergence herbicidal activity (B2); details: Test B2b, 1000 g/ha, evaluated after 13 days, 5=total damage to plant, 0=no damage to plant
Procedure: (§2) B2 Post-Emergence Herbicidal Activity Seeds of a variety of test species were sown in standard soil in pots: Triticum aestivium (TRZAW), Avena fatua (AVEFA), Alopecurus myosuroides (ALOMY), Echinochloa crus-galli (ECHCG), Lolium perenne (LOLPE), Zea Mays (ZEAMX), Abutilon theophrasti (ABUTH), Amaranthus retroflexus (AMARE) and Setaria faberi (SETFA). After 8 days cultivation (post-emergence) under controlled conditions in a glasshouse (at 24/16° C., day/night; 14 hours light; 65% humidity), the plants were sprayed with an aqueous spray solution derived from the formulation of the technical active ingredient in acetone/water (50:50) solution containing 0.5% Tween 20 (polyoxyethelyene sorbitan monolaurate, CAS RN 9005-64-5). The test plants were then grown in a glasshouse under controlled conditions (at 24/16° C., day/night; 14 hours light; 65% humidity) and watered twice daily. After 13 days, the test was evaluated (5=total damage to plant; 0=no damage to plant). Tables B2a and B2b Control of Weed Species by Compound of Formula (I) after Post-Emergence Application

[8] = test system: Amaranthus retroflexus (AMARE); test: Post-emergence herbicidal activity (B2); details: Test B2b, 1000 g/ha, evaluated after 13 days, 5=total damage to plant, 0=no damage to plant
Procedure: as §2

[9] = test system: Echinochloa crus-galli (ECHCG); test: Post-emergence herbicidal activity (B2); details: 1000 g/ha, evaluated after 13 days, 5=total damage to plant, 0=no damage to plant
Procedure: as §2

Lolium perenne (LOLPE) [10] = test: Post-emergence herbicidal activity (B2); details: 1000 g/ha, evaluated after 13 days, 5=total damage to plant, 0=no damage to plant
Procedure: as §2

Setaria faberi (SETFA) [11] = test: Post-emergence herbicidal activity (B2); details: 1000 g/ha, evaluated after 13 days, 5=total damage to plant, 0=no damage to plant
Procedure: as §2

Zea Mays (ZEAMX) [12] = test: Post-emergence herbicidal activity (B2); details: Test B2b, 1000 g/ha, evaluated after 13 days, 5=total damage to plant, 0=no damage to plant
Procedure: as §2

[13] = test system: Alopecurus myosuroides (ALOMY); test: Pre-emergence herbicidal activity (B1); details: Test 1a, 1000 g/ha, evaluated after 13 days, 5=total damage to plant, 0=no damage to plant
Procedure: as §1

Avena fatua (AVEFA) [14] = test: Pre-emergence herbicidal activity (B1); details: Test 1a, 1000 g/ha, evaluated after 13 days, 5=total damage to plant, 0=no damage to plant
Procedure: as §1

[15] = test system: Alopecurus myosuroides (ALOMY); test: Post-emergence herbicidal activity (B2); details: Test B2a, 1000 g/ha, evaluated after 13 days, 5=total damage to plant, 0=no damage to plant
Procedure: as §2

Avena fatua (AVEFA) [16] = test: Post-emergence herbicidal activity (B2); details: Test B2a, 1000 g/ha, evaluated after 13 days, 5=total damage to plant, 0=no damage to plant
Procedure: as §2

[17] = test system: Triticum aestivium (TRZAW); test: Post-emergence herbicidal activity (B2); details: Test B2a, 1000 g/ha, evaluated after 13 days, 5=total damage to plant, 0=no damage to plant
Procedure: as §2

Compound	ABUTH damage score [1]	AMARE damage score [2]	ECHCG damage score ([3]; Test 1b)	LOLPE damage score (Lolium perenne (LOLPE) [4]; Test 1b)	SETFA damage score (Setaria faberi (SETFA) [5]; Test 1b)	ZEAMX damage score (Zea Mays (ZEAMX) [6])	ABUTH damage score [7]	AMARE damage score [8]	ECHCG damage score ([9]; Test B2b)	LOLPE damage score (Lolium perenne (LOLPE) [10]; Test B2b)	SETFA damage score (Setaria faberi (SETFA) [11]; Test B2b)	ZEAMX damage score (Zea Mays (ZEAMX) [12])	also measured
COC(=O)CNc1ccc(-c2cncc(F)c2)nc1C(F)(F)F [Compound A22]	0	3	4	2	4	5	2	3	5	4	5	5	
Fc1cncc(-c2ccc(NCc3ccc(Cl)cc3)c(C(F)(F)F)n2)c1 [Compound A24]	0	0	2	1	4	3	0	0	3	2	5	5	
C=CCNc1ccc(-c2cncc(F)c2)nc1C(F)(F)F [Compound A25]	0	1	4	2	4	5	0	2	4	3	5	5	
Fc1cncc(-c2ccc(NCc3ccc(C(F)(F)F)cc3)c(C(F)(F)F)n2)c1 [Compound A26]	0	0	2	0	4	2	0	0	3	2	4	5	
CCNc1ccc(-c2cncc(F)c2)nc1C(F)(F)F [Compound A27]	0	0	5	2	4	5	0	0	4	4	5	5	
Fc1cncc(-c2ccc(NCc3ccc(F)cc3F)c(C(F)(F)F)n2)c1 [Compound A28]	0	0	2	0	4	2	0	1	3	2	5	5	
Fc1cncc(-c2ccc(NCC3CC3)c(C(F)(F)F)n2)c1 [Compound A29]	1	3	4	3	5	5	2	2	5	4	5	5	
CC#CCNc1ccc(-c2cncc(F)c2)nc1C(F)(F)F [Compound A30]	0	2	4	2	5	5	2	2	5	4	5	5	
Fc1ccc(CNc2ccc(-c3cncc(F)c3)nc2C(F)(F)F)cc1 [Compound A31]	1	1	4	2	5	4	0	1	4	3	5	5	
Fc1cncc(-c2ccc(Nc3ccccc3)c(C(F)(F)F)n2)c1 [Compound A32, 6-(5-fluoro-3-pyridyl)-N-phenyl-2-(trifluoromethyl)pyridin-3-amine]	1	1	4	1	5	1	0	0	4	3	5	4	
Nc1ccc(-c2cncc(F)c2)nc1C(F)(F)F [Compound A33, 6-(5-fluoro-3-pyridyl)-2-(trifluoromethyl)pyridin-3-amine]	0	1	2	2	4	4	1	2	3	3	5	5	
CNc1ccc(-c2cncnc2)nc1C(F)(F)F [Compound A34]	0	1	4	3	4	4	1	2	5	3	5	5	
Nc1ccc(-c2cncnc2)nc1C(F)(F)F [Compound A35, 6-pyrimidin-5-yl-2-(trifluoromethyl)pyridin-3-amine]	0	1	3	2	4	5	1	2	4	4	5	5	
Cc1nc(-c2cccnc2)ccc1N [Compound A36]	1	1	0	0	1	0	0	1	1	1	2	2	
Fc1cncc(-c2ccc(NC3CCCCC3)c(C(F)(F)F)n2)c1 [Compound A45]													ALOMY damage score [13]: 0; AVEFA damage score (Avena fatua (AVEFA) [14]): 1; ECHCG damage score ([3]; Test 1a): 3; LOLPE damage score (Lolium perenne (LOLPE) [4]; Test 1a): 0; SETFA damage score (Setaria faberi (SETFA) [5]; Test 1a): 4; ALOMY damage score [15]: 0; AVEFA damage score (Avena fatua (AVEFA) [16]): 2; ECHCG damage score ([9]; Test B2a): 2; LOLPE damage score (Lolium perenne (LOLPE) [10]; Test B2a): 1; SETFA damage score (Setaria faberi (SETFA) [11]; Test B2a): 4; TRAZW damage score [17]: 0

Reference: patent publication US10986838B2, “Herbicides” (SYNGENTA PARTICIPATIONS AG, priority 2016, dated 2021)
